Patent publication US9149038B2, “4-amino-6-(heterocyclic)picolinates and 6-amino-2-(heterocyclic)pyrimidine-4-carboxylates and their use as herbicides” (Dow AgroSciences LLC, priority 2013, dated 2015)
Like-named read-outs stand apart in the source and are kept apart here.

What was measured:
[1] = system: Key Broadleaf Weed and Crop Species; test: Post-Emergent Test II: postemergent herbicidal activity, visual rating after 14 d (Table 7); type: in vivo; details: post-emergence, 336 h; for pest or weed control at 35 g/ha: 35 g ai/ha; for pest or weed control at 70 g/ha: 70 g ai/ha; for pest or weed control at 140 g/ha: 140 g ai/ha
Procedure, shortened: (§1)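 Greenhouse-grown plants at the first or second true leaf stage (7-21 d, ~15 h photoperiod, 23-29° C day) were sprayed with compound in acetone/DMSO-based aqueous spray containing crop oil concentrate and Triton X-155 at 187 L/ha. Injury versus untreated plants was rated visually after 14 d on a 0-100 scale.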

[2] = system: Key Grass and Sedge Weeds as well as Grass Crops; test: Post-Emergent Test II: postemergent herbicidal activity, visual rating after 14 d (Table 8); type: in vivo; details: post-emergence, 336 h; for pest or weed control at 35 g/ha: 35 g ai/ha; for pest or weed control at 70 g/ha: 70 g ai/ha; for pest or weed control at 140 g/ha: 140 g ai/ha
Procedure, shortened: as §1

[3] = lambsquarters (Chenopodium album), read-out: Visual Growth Reduction (%) 14 Days After Application CHEAL
[4] = oilseed rape, canola (Brassica napus), read-out: Visual Growth Reduction (%) 14 Days After Application BRSNN
[5] = redroot pigweed (Amaranthus retroflexus), read-out: Visual Growth Reduction (%) 14 Days After Application AMARE
[6] = sunflower (Helianthus annuus), read-out: Visual Growth Reduction (%) 14 Days After Application HELAN
[7] = velvetleaf (Abutilon theophrasti), read-out: Visual Growth Reduction (%) 14 Days After Application ABUTH
[8] = wild poinsettia (Euphorbia heterophylla), read-out: Visual Growth Reduction (%) 14 Days After Application EPHHL
[9] = barnyardgrass (Echinochloa crus-galli), read-out: Visual Growth Reduction (%) 14 Days After Application ECHCG
[10] = giant foxtail (Setaria faberi), read-out: Visual Growth Reduction (%) 14 Days After Application SETFA
[11] = maize, corn (Zea mays), read-out: Visual Growth Reduction (%) 14 Days After Application ZEAMX
[12] = rice (Oryza sativa), read-out: Visual Growth Reduction (%) 14 Days After Application ORYSA
[13] = wheat, spring (Triticum aestivum), read-out: Visual Growth Reduction (%) 14 Days After Application TRZAS
[14] = yellow nutsedge (Cyperus esculentus), read-out: Visual Growth Reduction (%) 14 Days After Application CYPES

How did the pest or weed control at 35 g/ha [1, 3] turn out when `COC(=O)c1nc(-c2ccc(I)c3c2OC(F)(F)O3)c(F)c(N)c1Cl` [Compound 79, Methyl 4-amino-3-chloro-6-(2,2-difluoro-7-iodobenzo-[d][1,3]dioxol-4-yl)-5-fluoropicolinate] was run?
The pest or weed control at 35 g/ha was 85 to 94%.

And the pest or weed control at 70 g/ha [1, 3]?
The pest or weed control at 70 g/ha was 85 to 94%.

What about the pest or weed control at 140 g/ha [1, 3] of the same compound?
Its pest or weed control at 140 g/ha is 85 to 94%.

What about the pest or weed control at 35 g/ha [1, 4] of the same compound?
Its pest or weed control at 35 g/ha is 60 to 74%.

What about the pest or weed control at 70 g/ha [1, 4] of the same compound?
Its pest or weed control at 70 g/ha is 60 to 74%.

And the pest or weed control at 140 g/ha [1, 4]?
Its pest or weed control at 140 g/ha is 60 to 74%.

What about the pest or weed control at 35 g/ha [1, 5] of the same compound?
The pest or weed control at 35 g/ha was 95 to 100%.

And the pest or weed control at 70 g/ha [1, 5]?
The pest or weed control at 70 g/ha was 95 to 100%.

And the pest or weed control at 140 g/ha [1, 5]?
Its pest or weed control at 140 g/ha is 95 to 100%.

What about the pest or weed control at 35 g/ha [1, 6] of the same compound?
The pest or weed control at 35 g/ha was 85 to 94%.

What about the pest or weed control at 70 g/ha [1, 6] of the same compound?
Its pest or weed control at 70 g/ha is 85 to 94%.

What about the pest or weed control at 140 g/ha [1, 6] of the same compound?
Its pest or weed control at 140 g/ha is 85 to 94%.

And the pest or weed control at 35 g/ha [1, 7]?
The pest or weed control at 35 g/ha was 60 to 74%.

What about the pest or weed control at 70 g/ha [1, 7] of the same compound?
The pest or weed control at 70 g/ha was 75 to 84%.

What about the pest or weed control at 140 g/ha [1, 7] of the same compound?
Its pest or weed control at 140 g/ha is 75 to 84%.

And the pest or weed control at 35 g/ha [1, 8]?
Its pest or weed control at 35 g/ha is 0 to 29%.

What about the pest or weed control at 70 g/ha [1, 8] of the same compound?
Its pest or weed control at 70 g/ha is 0 to 29%.

What about the pest or weed control at 140 g/ha [1, 8] of the same compound?
Its pest or weed control at 140 g/ha is 0 to 29%.

What about the pest or weed control at 35 g/ha [2, 9] of the same compound?
Its pest or weed control at 35 g/ha is 0 to 29%.

And the pest or weed control at 70 g/ha [2, 9]?
Its pest or weed control at 70 g/ha is 0 to 29%.

And the pest or weed control at 140 g/ha [2, 9]?
The pest or weed control at 140 g/ha was 0 to 29%.

And the pest or weed control at 35 g/ha [2, 10]?
The pest or weed control at 35 g/ha was 0 to 29%.

What about the pest or weed control at 70 g/ha [2, 10] of the same compound?
The pest or weed control at 70 g/ha was 0 to 29%.

What about the pest or weed control at 140 g/ha [2, 10] of the same compound?
Its pest or weed control at 140 g/ha is 0 to 29%.

What about the pest or weed control at 35 g/ha [2, 11] of the same compound?
Its pest or weed control at 35 g/ha is 0 to 29%.

And the pest or weed control at 70 g/ha [2, 11]?
Its pest or weed control at 70 g/ha is 0 to 29%.

And the pest or weed control at 140 g/ha [2, 11]?
Its pest or weed control at 140 g/ha is 0 to 29%.

What about the pest or weed control at 35 g/ha [2, 12] of the same compound?
The pest or weed control at 35 g/ha was 0 to 29%.

What about the pest or weed control at 70 g/ha [2, 12] of the same compound?
Its pest or weed control at 70 g/ha is 0 to 29%.

And the pest or weed control at 140 g/ha [2, 12]?
The pest or weed control at 140 g/ha was 0 to 29%.

And the pest or weed control at 35 g/ha [2, 13]?
The pest or weed control at 35 g/ha was 0 to 29%.

What about the pest or weed control at 70 g/ha [2, 13] of the same compound?
Its pest or weed control at 70 g/ha is 0 to 29%.

What about the pest or weed control at 140 g/ha [2, 13] of the same compound?
Its pest or weed control at 140 g/ha is 0 to 29%.

And the pest or weed control at 35 g/ha [2, 14]?
Its pest or weed control at 35 g/ha is 0 to 29%.

And the pest or weed control at 70 g/ha [2, 14]?
Its pest or weed control at 70 g/ha is 0 to 29%.

And the pest or weed control at 140 g/ha [2, 14]?
Its pest or weed control at 140 g/ha is 0 to 29%.
